Calls of active or inactive are those of the source. The rule behind the calls is not given here.
How the values were obtained:
Assay type in all cases: functional, organism-based
Mus musculus [1] = test: Reduction in plasma albumin level in tunicamycin-induced liver injury C57BL/6 mouse model at 75 to 300 mg/kg, ig administered for 3 days and on day 3 administered with tunicamycin after 2 hrs and measured after 24 hrs; settings: dose 75-300 mg/kg, time 4.0 day
Mus musculus [2] = test: Protection against tunicamycin-induced liver injury-mediated hepatic metabolic disorders in C57BL/6 mouse assessed as increase in phosphorylated Akt level in liver at 150 mg/kg, ig administered for 3 days and on day 3 administered with tunicamycin after 2 hrs and measured after 24 hrs in presence of insulin by western blot analysis; settings: time 4.0 day
Mus musculus [3] = test: Protection against tunicamycin-induced liver injury-mediated hepatic metabolic disorders in C57BL/6 mouse assessed as HDL-C level in liver at 75 to 300 mg/kg, ig administered for 3 days and on day 3 administered with tunicamycin after 2 hrs and measured after 24 hrs; settings: dose 75-300 mg/kg, time 4.0 day
Mus musculus [4] = test: Protection against tunicamycin-induced UPR response in C57BL/6 mouse assessed as downregulation of IRE1alpha protein expression in liver at 150 mg/kg, ig administered for 3 days and on day 3 administered with tunicamycin after 2 hrs and measured after 24 hrs by western blot analysis; settings: time 4.0 day
Mus musculus [5] = test: (§1) Protection against tunicamycin-induced liver injury-mediated hepatic metabolic disorders in C57BL/6 mouse assessed as reduction in FGF21 level in serum at 75 to 300 mg/kg, ig administered for 3 days and on day 3 administered with tunicamycin after 2 hrs and measured after 24 hrs by ELISA; settings: dose 75-300 mg/kg, time 4.0 day
Mus musculus [6] = test: (§2) Protection against tunicamycin-induced liver injury-mediated hepatic metabolic disorders in C57BL/6 mouse assessed as inhibition of lipid metabolic disorders by measuring increase in plasma HDL-C level at 75 to 300 mg/kg, ig administered for 3 days and on day 3 administered with tunicamycin after 2 hrs and measured after 24 hrs; settings: dose 75-300 mg/kg, time 4.0 day
Mus musculus [7] = test: as §1, with “TRB3 gene expression” for “FGF21 level”, “liver” for “serum”, “150” for “75 to 300”, “RT-qPCR analysis” for “ELISA”; settings: time 4.0 day
Mus musculus [8] = test: Protection against tunicamycin-induced ER stress-mediated liver injury in C57BL/6 mouse assessed as plasma ALT level at 75 to 300 mg/kg, ig administered for 3 days and on day 3 administered with tunicamycin after 2 hrs and measured after 24 hrs; settings: dose 75-300 mg/kg, time 4.0 day
Mus musculus [9] = test: as §2, with “LDL-C” for “HDL-C”; settings: dose 75-300 mg/kg, time 4.0 day
Mus musculus [10] = test: Protection against tunicamycin-induced UPR response in C57BL/6 mouse assessed as downregulation of phosphorylated eIF2alpha protein expression in liver at 150 mg/kg, ig administered for 3 days and on day 3 administered with tunicamycin after 2 hrs and measured after 24 hrs by western blot analysis; settings: time 4.0 day
Mus musculus [11] = test: as §2, with “TC” for “HDL-C”; settings: dose 75-300 mg/kg, time 4.0 day
Mus musculus [12] = test: (§3) Protection against tunicamycin-induced ER stress-mediated liver injury in C57BL/6 mouse assessed as normal liver morphology at 75 to 300 mg/kg, ig administered for 3 days and on day 3 administered with tunicamycin after 2 hrs and measured after 24 hrs; settings: dose 75-300 mg/kg, time 4.0 day
Mus musculus [13] = test: (§4) Protection against tunicamycin-induced liver injury-mediated hepatic metabolic disorders in C57BL/6 mouse assessed as increase in PPARgamma2 gene expression at 75 to 300 mg/kg, ig administered for 3 days and on day 3 administered with tunicamycin after 2 hrs and measured after 24 hrs by RT-qPCR analysis; settings: dose 75-300 mg/kg, time 4.0 day
Mus musculus [14] = test: Protection against tunicamycin-induced ER stress in C57BL/6 mouse assessed as downregulation of GRP78 protein expression in liver at 150 mg/kg, ig administered for 3 days and on day 3 administered with tunicamycin after 2 hrs and measured after 24 hrs by western blot analysis; settings: time 4.0 day
Mus musculus [15] = test: Protection against tunicamycin-induced gut microbiota dysbiosis in C57BL/6 mouse assessed as decrease in prevotellaceae-abundance in colon at 75 to 300 mg/kg, ig administered for 3 days and on day 3 administered with tunicamycin after 2 hrs and measured after 24 hrs; settings: dose 75-300 mg/kg, time 4.0 day
Mus musculus [16] = test: Effect on Akt protein expression in liver of tunicamycin-induced liver injury C57BL/6 mouse model at 75 to 300 mg/kg, ig administered for 3 days and on day 3 administered with tunicamycin after 2 hrs and measured after 24 hrs in presence of insulin by western blot analysis; settings: dose 75-300 mg/kg, time 4.0 day
Mus musculus [17] = test: as §2, with “in plasma VLDL-C level at” for “in plasma HDL-C level at”, “24 hrs by ELISA” for “24 hrs”; settings: dose 75-300 mg/kg, time 4.0 day
Mus musculus [18] = test: Protection against tunicamycin-induced gut microbiota dysbiosis in C57BL/6 mouse assessed as increase in Erysipelotrichaceae- abundance in colon at 75 to 300 mg/kg, ig administered for 3 days and on day 3 administered with tunicamycin after 2 hrs and measured after 24 hrs; settings: dose 75-300 mg/kg, time 4.0 day
Mus musculus [19] = test: Protection against tunicamycin-induced liver injury-mediated hepatic metabolic disorders in C57BL/6 mouse assessed as TC level in liver at 75 to 300 mg/kg, ig administered for 3 days and on day 3 administered with tunicamycin after 2 hrs and measured after 24 hrs; settings: dose 75-300 mg/kg, time 4.0 day
Mus musculus [20] = test: Protection against tunicamycin-induced ER stress in C57BL/6 mouse assessed as downregulation of CHOP gene expression in liver at 150 mg/kg, ig administered for 3 days and on day 3 administered with tunicamycin after 2 hrs and measured after 24 hrs by RT-qPCR analysis; settings: time 4.0 day
Mus musculus [21] = test: Protection against tunicamycin-induced liver injury-mediated hepatic metabolic disorders in C57BL/6 mouse assessed as increase in CD36 gene expression at 150 mg/kg, ig administered for 3 days and on day 3 administered with tunicamycin after 2 hrs and measured after 24 hrs by RT-qPCR analysis; settings: time 4.0 day
Mus musculus [22] = test: as §2, with “TG” for “HDL-C”; settings: dose 75-300 mg/kg, time 4.0 day
Mus musculus [23] = test: Protection against tunicamycin-induced liver injury-mediated hepatic metabolic disorders in C57BL/6 mouse assessed as increase in SCD1 gene expression at 75 to 300 mg/kg, ig administered for 3 days and on day 3 administered with tunicamycin after 2 hrs and measured after 24 hrs by RT-qPCR analysis; settings: dose 75-300 mg/kg, time 4.0 day
Mus musculus [24] = test: Protection against tunicamycin-induced liver injury-mediated hepatic metabolic disorders in C57BL/6 mouse assessed as increase in FXR gene expression at 75 to 300 mg/kg, ig administered for 3 days and on day 3 administered with tunicamycin after 2 hrs and measured after 24 hrs by RT-qPCR analysis; settings: dose 75-300 mg/kg, time 4.0 day
Mus musculus [25] = test: Protection against tunicamycin-induced ER stress-mediated liver injury in C57BL/6 mouse assessed as plasma AST level at 75 to 300 mg/kg, ig administered for 3 days and on day 3 administered with tunicamycin after 2 hrs and measured after 24 hrs; settings: dose 75-300 mg/kg, time 4.0 day
Mus musculus [26] = test: Protection against tunicamycin-induced gut microbiota dysbiosis in C57BL/6 mouse assessed as decrease in ratio of Prevotellaceae-to-Erysipelotrichaceae in colon at 75 to 300 mg/kg, ig administered for 3 days and on day 3 administered with tunicamycin after 2 hrs and measured after 24 hrs; settings: dose 75-300 mg/kg, time 4.0 day
Mus musculus [27] = test: Protection against tunicamycin-induced liver injury-mediated hepatic metabolic disorders in C57BL/6 mouse assessed as LDL-C level in liver at 75 to 300 mg/kg, ig administered for 3 days and on day 3 administered with tunicamycin after 2 hrs and measured after 24 hrs; settings: dose 75-300 mg/kg, time 4.0 day
Mus musculus [28] = test: Protection against tunicamycin-induced UPR response in C57BL/6 mouse assessed as downregulation of ATF6 gene expression in liver at 150 mg/kg, ig administered for 3 days and on day 3 administered with tunicamycin after 2 hrs and measured after 24 hrs by RT-qPCR analysis; settings: time 4.0 day
Mus musculus [29] = test: Protection against tunicamycin-induced ER stress in C57BL/6 mouse assessed as downregulation of CHOP protein expression in liver at 150 mg/kg, ig administered for 3 days and on day 3 administered with tunicamycin after 2 hrs and measured after 24 hrs by western blot analysis; settings: time 4.0 day
Mus musculus [30] = test: as §2, with “decrease” for “increase”, “liver TG” for “plasma HDL-C”; settings: dose 75-300 mg/kg, time 4.0 day
Mus musculus [31] = test: as §4, with “reduction” for “increase”, “FGF21” for “PPARgamma2”, “expression in liver” for “expression”; settings: dose 75-300 mg/kg, time 4.0 day
Mus musculus [32] = test: Protection against tunicamycin-induced liver injury-mediated hepatic metabolic disorders in C57BL/6 mouse assessed as increase in CYP7A1 gene expression at 75 to 300 mg/kg, ig administered for 3 days and on day 3 administered with tunicamycin after 2 hrs and measured after 24 hrs by RT-qPCR analysis; settings: dose 75-300 mg/kg, time 4.0 day
Mus musculus [33] = test: as §3, with “normal liver histology at 75” for “normal liver morphology at 75”, “24 hrs by Hematoxylin-eosin staining based microscopic analysis” for “24 hrs”; settings: dose 75-300 mg/kg, time 4.0 day
Mus musculus [34] = test: Protection against tunicamycin-induced gut microbiota dysbiosis in C57BL/6 mouse assessed as increase in Epsilonbacteraeota-abundance in colon at 75 to 300 mg/kg, ig administered for 3 days and on day 3 administered with tunicamycin after 2 hrs and measured after 24 hrs; settings: dose 75-300 mg/kg, time 4.0 day
Mus musculus [35] = test: Protection against tunicamycin-induced UPR response in C57BL/6 mouse assessed as downregulation of PERK gene expression in liver at 150 mg/kg, ig administered for 3 days and on day 3 administered with tunicamycin after 2 hrs and measured after 24 hrs by RT-qPCR analysis; settings: time 4.0 day
Mus musculus [36] = test: Protection against tunicamycin-induced gut microbiota dysbiosis in C57BL/6 mouse assessed as increase in proteobacteria abundance in colon at 75 to 300 mg/kg, ig administered for 3 days and on day 3 administered with tunicamycin after 2 hrs and measured after 24 hrs; settings: dose 75-300 mg/kg, time 4.0 day
Mus musculus [37] = test: as §4, with “PPARgamma1” for “PPARgamma2”; settings: dose 75-300 mg/kg, time 4.0 day
Mus musculus [38] = test: Protection against tunicamycin-induced gut microbiota dysbiosis in C57BL/6 mouse assessed as increase in Pediococcus-pentosaceus abundance in colon at 150 mg/kg, ig administered for 3 days and on day 3 administered with tunicamycin after 2 hrs and measured after 24 hrs by LEfse analysis; settings: time 4.0 day
Mus musculus [39] = test: as §4, with “ACCalpha1” for “PPARgamma2”; settings: dose 75-300 mg/kg, time 4.0 day
Mus musculus [40] = test: Protection against tunicamycin-induced UPR response in C57BL/6 mouse assessed as downregulation of PERK protein expression in liver at 150 mg/kg, ig administered for 3 days and on day 3 administered with tunicamycin after 2 hrs and measured after 24 hrs by western blot analysis; settings: time 4.0 day
Mus musculus [41] = test: Protection against tunicamycin-induced ER stress in C57BL/6 mouse assessed as downregulation of GRP78 gene expression in liver at 150 mg/kg, ig administered for 3 days and on day 3 administered with tunicamycin after 2 hrs and measured after 24 hrs by RT-qPCR analysis; settings: time 4.0 day

COc1ccc2cc3[n+](cc2c1OC)CCc1cc2c(cc1-3)OCO2
inhibition (Mus musculus [1]): Active
Activity (Mus musculus [2]): Active
Activity (Mus musculus [3]): inactive
Activity (Mus musculus [4]): Active
Activity (Mus musculus [5]): Active
Activity (Mus musculus [6]): Active
Activity (Mus musculus [7]): Active
Activity (Mus musculus [8]): inactive
Activity (Mus musculus [9]): Active
Activity (Mus musculus [10]): Active
Activity (Mus musculus [11]): Active
Activity (Mus musculus [12]): Active
Activity (Mus musculus [13]): inactive
Activity (Mus musculus [14]): Active
Activity (Mus musculus [15]): Active
Activity (Mus musculus [16]): inactive
Activity (Mus musculus [17]): Active
Activity (Mus musculus [18]): Active
Activity (Mus musculus [19]): inactive
Activity (Mus musculus [20]): Active
Activity (Mus musculus [21]): Active
Activity (Mus musculus [22]): Active
Activity (Mus musculus [23]): inactive
Activity (Mus musculus [24]): inactive
Activity (Mus musculus [25]): inactive
Activity (Mus musculus [26]): Active
Activity (Mus musculus [27]): inactive
Activity (Mus musculus [28]): Active
Activity (Mus musculus [29]): Active
Activity (Mus musculus [30]): Active
Activity (Mus musculus [31]): Active
Activity (Mus musculus [32]): inactive
Activity (Mus musculus [33]): Active
Activity (Mus musculus [34]): Active
Activity (Mus musculus [35]): Active
Activity (Mus musculus [36]): Active
Activity (Mus musculus [37]): inactive
Activity (Mus musculus [38]): Active
Activity (Mus musculus [39]): inactive
Activity (Mus musculus [40]): Active
Activity (Mus musculus [41]): Active
